From ChEMBL document CHEMBL3885881, “DrugMatrix”

Organism: Rattus norvegicus
Experiment: DrugMatrix - Regimen: Daily Repeat
Assay type: toxicity, organism-based, Sprague-Dawley
Parameters: regimen Daily Repeat, gender Male, age 6-8 weeks
Conditions: in vivo, po, route oral GAVAGE, […]; for ABSOLUTE BASOPHIL / ABSOLUTE EOSINOPHIL / ABSOLUTE LYMPHOCYTE / ABSOLUTE MONOCYTE / ABSOLUTE SEGMENTED NEUTROPHIL / BASOPHIL / EOSINOPHIL / ERYTHROCYTE COUNT / HEMATOCRIT / HEMOGLOBIN / LEUKOCYTE COUNT / LYMPHOCYTE / MEAN CORPUSCULAR HEMOGLOBIN / MEAN CORPUSCULAR HEMOGLOBIN CONCENTRATION / MEAN CORPUSCULAR VOLUME / MONOCYTE / NEUTROPHIL / NUCLEATED RED BLOOD CELLS / PLATELET COUNT: tissue Blood; for ALANINE AMINOTRANSFERASE / ALBUMIN / ALKALINE PHOSPHATASE / ASPARTATE AMINOTRANSFERASE / BLOOD UREA NITROGEN / CARBON DIOXIDE / CHLORIDE / CHOLESTEROL / CREATINE PHOSPHOKINASE / CREATININE / GLUCOSE / LACTATE DEHYDROGENASE / LIPASE / PHOSPHORUS / POTASSIUM / SODIUM / TOTAL BILIRUBIN / TOTAL PROTEIN / URIC ACID: tissue Plasma
[1] = 100 mg/kg, 120 h, dose level Low, time 5 day
[2] = 448 mg/kg, 72 h, dose level High, time 3 day
[3] = 448 mg/kg, 120 h, dose level High, time 5 day

CC(C)(Oc1ccc(Cl)cc1)C(=O)O [CLOFIBRIC ACID]
ABSOLUTE BASOPHIL [1]: 0 CELLS/uL
ABSOLUTE EOSINOPHIL [1]: 54.67 CELLS/uL
ABSOLUTE LYMPHOCYTE [1]: 12665.33 CELLS/uL
ABSOLUTE MONOCYTE [1]: 34.33 CELLS/uL
ABSOLUTE SEGMENTED NEUTROPHIL [1]: 1712.33 CELLS/uL
BASOPHIL [1]: 0%
EOSINOPHIL [1]: 0.33%
ERYTHROCYTE COUNT [1]: 5.75 x10E6/uL
HEMATOCRIT [1]: 35.5%
HEMOGLOBIN [1]: 14.03 G/DL
LEUKOCYTE COUNT [1]: 14.47 x10E3/uL
LYMPHOCYTE [1]: 87%
MEAN CORPUSCULAR HEMOGLOBIN [1]: 24.43 pg
MEAN CORPUSCULAR HEMOGLOBIN CONCENTRATION [1]: 39.53 G/DL
MEAN CORPUSCULAR VOLUME [1]: 61.77 fL
MONOCYTE [1]: 0.33%
NEUTROPHIL [1]: 12.33%
NUCLEATED RED BLOOD CELLS [1]: 0.33 /100WBC
PLATELET COUNT [1]: 1147.33 x10E3/uL
ALANINE AMINOTRANSFERASE [1]: 63.67 u/L
ALBUMIN [1]: 4.37 G/DL
ALKALINE PHOSPHATASE [1]: 342 u/L
ASPARTATE AMINOTRANSFERASE [1]: 93.33 u/L
BLOOD UREA NITROGEN [1]: 15 mg/dL
CARBON DIOXIDE [1]: 28 mmol/L
CHLORIDE [1]: 101.33 MEQ/L
CHOLESTEROL [1]: 50.67 mg/dL
CREATINE PHOSPHOKINASE [1]: 370.33 u/L
CREATININE [1]: 0.2 mg/dL
GLUCOSE [1]: 145.33 mg/dL
LACTATE DEHYDROGENASE [1]: 275.67 u/L
LIPASE [1]: 9.67 u/L
PHOSPHORUS [1]: 11.03 mg/dL
POTASSIUM [1]: 5.96 MEQ/L
SODIUM [1]: 142.3 MEQ/L
TOTAL BILIRUBIN [1]: 0.2 mg/dL
TOTAL PROTEIN [1]: 5.73 G/DL
URIC ACID [1]: 1.23 mg/dL
ABSOLUTE BASOPHIL [2]: 0 CELLS/uL
ABSOLUTE EOSINOPHIL [2]: 0 CELLS/uL
ABSOLUTE LYMPHOCYTE [2]: 10222.33 CELLS/uL
ABSOLUTE MONOCYTE [2]: 204.67 CELLS/uL
ABSOLUTE SEGMENTED NEUTROPHIL [2]: 1606.33 CELLS/uL
BASOPHIL [2]: 0%
EOSINOPHIL [2]: 0%
ERYTHROCYTE COUNT [2]: 5.53 x10E6/uL
HEMATOCRIT [2]: 33.9%
HEMOGLOBIN [2]: 13.1 G/DL
LEUKOCYTE COUNT [2]: 12.03 x10E3/uL
LYMPHOCYTE [2]: 85%
MEAN CORPUSCULAR HEMOGLOBIN [2]: 23.73 pg
MEAN CORPUSCULAR HEMOGLOBIN CONCENTRATION [2]: 38.63 G/DL
MEAN CORPUSCULAR VOLUME [2]: 61.37 fL
MONOCYTE [2]: 1.67%
NEUTROPHIL [2]: 13.33%
NUCLEATED RED BLOOD CELLS [2]: 0 /100WBC
PLATELET COUNT [2]: 1067.33 x10E3/uL
ALANINE AMINOTRANSFERASE [2]: 82.33 u/L
ALBUMIN [2]: 4.4 G/DL
ALKALINE PHOSPHATASE [2]: 525.33 u/L
ASPARTATE AMINOTRANSFERASE [2]: 118.33 u/L
BLOOD UREA NITROGEN [2]: 13.33 mg/dL
CARBON DIOXIDE [2]: 33 mmol/L
CHLORIDE [2]: 98.33 MEQ/L
CHOLESTEROL [2]: 39 mg/dL
CREATINE PHOSPHOKINASE [2]: 203.67 u/L
CREATININE [2]: 0.14 mg/dL
GLUCOSE [2]: 149.33 mg/dL
LACTATE DEHYDROGENASE [2]: 172.67 u/L
LIPASE [2]: 8 u/L
PHOSPHORUS [2]: 11.27 mg/dL
POTASSIUM [2]: 6.66 MEQ/L
SODIUM [2]: 140.57 MEQ/L
TOTAL BILIRUBIN [2]: 0.17 mg/dL
TOTAL PROTEIN [2]: 5.33 G/DL
URIC ACID [2]: 1.37 mg/dL
ABSOLUTE BASOPHIL [3]: 0 CELLS/uL
ABSOLUTE EOSINOPHIL [3]: 0 CELLS/uL
ABSOLUTE LYMPHOCYTE [3]: 14966.67 CELLS/uL
ABSOLUTE MONOCYTE [3]: 437.33 CELLS/uL
ABSOLUTE SEGMENTED NEUTROPHIL [3]: 2729.33 CELLS/uL
BASOPHIL [3]: 0%
EOSINOPHIL [3]: 0%
ERYTHROCYTE COUNT [3]: 5.64 x10E6/uL
HEMATOCRIT [3]: 35.03%
HEMOGLOBIN [3]: 13.4 G/DL
LEUKOCYTE COUNT [3]: 18.13 x10E3/uL
LYMPHOCYTE [3]: 82.67%
MEAN CORPUSCULAR HEMOGLOBIN [3]: 23.77 pg
MEAN CORPUSCULAR HEMOGLOBIN CONCENTRATION [3]: 38.27 G/DL
MEAN CORPUSCULAR VOLUME [3]: 62.17 fL
MONOCYTE [3]: 2.33%
NEUTROPHIL [3]: 15%
NUCLEATED RED BLOOD CELLS [3]: 0 /100WBC
PLATELET COUNT [3]: 1012.67 x10E3/uL
ALANINE AMINOTRANSFERASE [3]: 61 u/L
ALBUMIN [3]: 4.6 G/DL
ALKALINE PHOSPHATASE [3]: 409.33 u/L
ASPARTATE AMINOTRANSFERASE [3]: 90.67 u/L
BLOOD UREA NITROGEN [3]: 17.33 mg/dL
CARBON DIOXIDE [3]: 28.33 mmol/L
CHLORIDE [3]: 106.67 MEQ/L
CHOLESTEROL [3]: 46.33 mg/dL
CREATINE PHOSPHOKINASE [3]: 195.67 u/L
CREATININE [3]: 0.19 mg/dL
GLUCOSE [3]: 158 mg/dL
LACTATE DEHYDROGENASE [3]: 194.33 u/L
LIPASE [3]: 9.33 u/L
PHOSPHORUS [3]: 9.7 mg/dL
POTASSIUM [3]: 6.4 MEQ/L
SODIUM [3]: 149.4 MEQ/L
TOTAL BILIRUBIN [3]: 0.1 mg/dL
TOTAL PROTEIN [3]: 5.63 G/DL
URIC ACID [3]: 1.5 mg/dL
